In patent US11498930B2 (BLUERAY THERAPEUTICS (SHANGHAI) CO., LTD., priority 2018, dated 2022) one finds IC50 data, which are given here for 39 compounds.

The target in one experiment is SHP2^E76A protein (Homo sapiens (Human), UniProt Q06124, E76A). Kind of experiment: SHP2 enzyme activity inhibition experiment. The class given is biochemical. The settings on record: SHP2 enzyme activity, Tables 1.1 and 1.2; read-out: IC50. As for the experimental part:
Compound powders were dissolved in DMSO to prepare mother liquor.
During the experiment, the stock solutions of the compounds were subjected to 3-fold gradient dilution with DMSO, and 10 different test concentrations of each compound were set. […] The protein used was the activated protein SHP^2E76A with amino acid mutation at position 76 of the protein, and the substrate used was DiFMUP (Invitrogen, E12020). […] 50 µL of enzyme solution was added to the detection wells, followed by 50 µL of substrate. […] GraphPad Prism 5 was used for nonlinear regression analysis, and the curve of enzyme activity versus compound concentration was fitted by the equation Y=Bottom+(Top-Bottom)/(1+10^((Log IC50−X)*HillSlope)) to calculate the IC50 value of each compound.

The subject of the next experiment is MOLM-13 cells. The experiment in a line: MOLM-13 cell proliferation experiment. The class given is cell-based. The following applies: Homo sapiens, MOLM-13, 72 h, MOLM-13 cell proliferation, 3 days, Tables 3.1 and 3.2; read-out: IC50. As for the experimental part:
After 3 days, 5 µL of CellTiter-Glo reagent (Promega, ZG7572) was added to each well, and the plates were kept at room temperature in the dark for 10 minutes. The […] was detected by Spectra max i3 (Molecular Devices). The relative growth rate of the treated cells was compared with that of DMSO control.

Chain of SHP2^E76A protein (Q06124 whole entry E76A): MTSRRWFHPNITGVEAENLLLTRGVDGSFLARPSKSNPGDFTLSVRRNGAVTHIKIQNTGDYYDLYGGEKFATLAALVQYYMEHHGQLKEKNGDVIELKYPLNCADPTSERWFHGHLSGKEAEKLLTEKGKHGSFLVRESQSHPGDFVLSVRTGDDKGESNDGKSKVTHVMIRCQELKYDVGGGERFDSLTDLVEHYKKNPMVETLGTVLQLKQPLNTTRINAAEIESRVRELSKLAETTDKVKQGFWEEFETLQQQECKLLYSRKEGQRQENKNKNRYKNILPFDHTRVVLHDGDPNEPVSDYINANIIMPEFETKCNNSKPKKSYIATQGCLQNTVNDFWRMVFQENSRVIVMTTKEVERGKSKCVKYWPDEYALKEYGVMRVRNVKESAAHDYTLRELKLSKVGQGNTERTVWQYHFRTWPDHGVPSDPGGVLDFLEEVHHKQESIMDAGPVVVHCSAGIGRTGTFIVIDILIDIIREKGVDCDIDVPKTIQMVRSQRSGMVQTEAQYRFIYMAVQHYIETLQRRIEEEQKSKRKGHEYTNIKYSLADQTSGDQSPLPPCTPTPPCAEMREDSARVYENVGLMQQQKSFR

With `N[C@@H]1COCC12CCN(c1ncc(Sc3cccc(Cl)c3Cl)c3nccn13)CC2` [(S)-8-(8-((2,3-dichlorophenyl)thio)imidazo[1,2-c]pyrimidin-5-yl)-2-oxa-8-azaspiro[4.5]decan-4-amine], the values for the IC50 at SHP2^E76A protein and in the experiment with MOLM-13 cells were < 100 nM and 100 to 1000 nM, respectively.
For `N[C@@H]1CCCC12CCN(c1ncc(Sc3cccnc3Cl)c3ncnn13)CC2`, in that order: 100 to 1000 nM and 1000 to 10000 nM.
In the same order, the values of `NC1CCCN(c2ncc(Sc3cccc(Cl)c3Cl)c3ncnn23)CC1` (stereo not drawn) [1-(8-((2,3-dichlorophenyl)thio)-[1,2,4]triazolo[1,5-c]pyrimidin-5-yl)azepan-4-amine] are 100 to 1000 nM and 1000 to 10000 nM.
`NC1CCCCC12CCN(c1ncc(Sc3cccc(Cl)c3Cl)c3ncnn13)CC2` (stereo not drawn): the IC50 – broadly, the concentration that gives 50% inhibition – at SHP2^E76A protein is 100 to 1000 nM; in the experiment on MOLM-13 cells, 1000 to 10000 nM.
In the same order, the values of `N[C@@H]1CCCC12CCN(c1ncc(Sc3ccc(Cl)cc3Cl)c3nncn13)CC2` [(R)-8-(8-((2,4-dichlorophenyl)thio)-[1,2,4]triazolo[4,3-c]pyrimidin-5-yl)-8-azaspiro[4.5]decan-1-amine] are 100 to 1000 nM and 1000 to 10000 nM.
For the compound `CN(C)C(=O)C(=O)Nc1cccc(Sc2cnc(N3CCC4(CCC[C@H]4N)CC3)n3ccnc23)c1Cl`, the IC50 with MOLM-13 cells is 100 to 1000 nM.
For `N[C@@H]1CCCC12CCN(c1ncc(Sc3ccccc3)c3nccn13)CC2` [(R)-8-(8-(phenylthio)imidazo[1,2-c]pyrimidin-5-yl)-8-azaspiro[4.5]decan-1-amine], the IC50 on SHP2^E76A protein and in the experiment with MOLM-13 cells was 100 to 1000 nM in each case.
Turning to `C[C@@H]1OCC2(CCN(c3ncc(Sc4cc(N)nc(Cl)c4Cl)c4nncn34)CC2)[C@@H]1N` [(3S,4S)-8-(8-((6-amino-2,3-dichloropyridin-4-yl)thio)-[1,2,4]triazolo[4,3-c]pyrimidin-5-yl)-3-methyl-2-oxa-8-azaspiro[4.5]decan-4-amine], the IC50 at SHP2^E76A protein was < 100 nM; in the experiment with MOLM-13 cells, 100 to 1000 nM.
In the same order, the values of `N[C@@H]1COCC12CCN(c1ncc(Sc3ccnc(Cl)c3Cl)c3nncn13)CC2` [(S)-8-(8-((2,3-dichloropyridin-4-yl)thio)-[1,2,4]triazolo[4,3-c]pyrimidin-5-yl)-2-oxa-8-azaspiro[4.5]decan-4-amine] are 100 to 1000 nM and 100 to 1000 nM.
On to `CC1C[C@@H](N)C2(CCN(c3ncc(Sc4ccnc(Cl)c4Cl)c4nncn34)CC2)C1` (stereo partly drawn) [(1R)-8-(8-((2,3-dichloropyridin-4-yl)thio)-[1,2,4]triazolo[4,3-c]pyrimidin-5-yl)-3-methyl-8-azaspiro[4.5]decan-1-amine], for which the IC50 on SHP2^E76A protein is < 100 nM; in the experiment with MOLM-13 cells, 100 to 1000 nM.
As to `Cc1ncccc1Sc1cnc(N2CCC3(CCC[C@H]3N)CC2)n2ccnc12`, the IC50 in the experiment on MOLM-13 cells is 100 to 1000 nM.
The same measure, in the same setting: next, `COc1ccccc1Sc1cnc(N2CCC3(CCC[C@H]3N)CC2)n2ncnc12`: 1000 to 10000 nM.
Regarding `NCC1CCN(c2ncc(Sc3cccc(Cl)c3Cl)c3nccn23)C1` (stereo not drawn) [(1-(8-((2,3-dichlorophenyl)thio)imidazo[1,2-c]pyrimidin-5-yl)pyrrolidin-3-yl)methanamine], the IC50 on SHP2^E76A protein lay in the range of 100 to 1000 nM.
The same measure, in the same setting: next, `N[C@@H]1CCCC12CCN(c1ncc(-c3cccc(Cl)c3Cl)c3nccn13)CC2` [(R)-8-(8-(2,3-dichlorophenyl)imidazo[1,2-c]pyrimidin-5-yl)-8-azaspiro[4.5]decan-1-amine]: 100 to 1000 nM; `CC1(C)COC2(CCN(c3ncc(Sc4cccc(Cl)c4Cl)c4nccn34)CC2)[C@@H]1N` [(R)-8-(8-((2,3-dichlorophenyl)thio)imidazo[1,2-c]pyrimidin-5-yl)-3,3-dimethyl-1-oxa-8-azaspiro[4.5]decan-4-amine]: 100 to 1000 nM; `CN(C)c1nccc(Sc2cnc(N3CCC4(CCC[C@H]4N)CC3)n3cnnc23)c1Cl` [(R)-8-(8-((3-chloro-2-(dimethylamino)pyridin-4-yl)thio)-[1,2,4]triazolo[4,3-c]pyrimidin-5-yl)-8-azaspiro[4.5]decan-1-amine]: 100 to 1000 nM.
On to `Cc1nc(N)cc(Sc2cnc(N3CCC4(CCC[C@H]4N)CC3)n3ccnc23)c1Cl`, for which the IC50 at SHP2^E76A protein is < 100 nM.
`N[C@@H]1CCCC12CCN(c1ncc(Sc3cccc4ncsc34)c3nccn13)CC2` [(R)-8-(8-(benzo[d]thiazol-7-ylthio)imidazo[1,2-c]pyrimidin-5-yl)-8-azaspiro[4.5]decan-1-amine]: the IC50 at SHP2^E76A protein lay within 100 to 1000 nM.
Regarding `Cc1nccc(Sc2cnc(N3CCC4(CC3)COC[C@H]4N)n3cnnc23)c1Cl` [(S)-8-(8-((3-chloro-2-methylpyridin-4-yl)thio)-[1,2,4]triazolo[4,3-c]pyrimidin-5-yl)-2-oxa-8-azaspiro[4.5]decan-4-amine], in the experiment on MOLM-13 cells, the IC50 is 100 to 1000 nM.
Take `C[C@H]1OCC2(CCN(c3ncc(Sc4ccnc(N)c4Cl)c4nncn34)CC2)[C@H]1N`: on SHP2^E76A protein, the IC50 lay in the range of 1000 to 10000 nM.
Same read-out and setting: the value for `N[C@@H]1CCCCC12CCN(c1ncc(Sc3cccc(Cl)c3Cl)c3nccn13)CC2` [(R)-3-(8-((2,3-dichlorophenyl)thio)imidazo[1,2-c]pyrimidin-5-yl)-3-azaspiro[5.5]undecan-7-amine] was 100 to 1000 nM.
Still for that read-out and setting: next, `CC1CN(c2ncc(Sc3cccc(Cl)c3Cl)c3nncn23)CC(C)N1` (stereo not drawn) [8-((2,3-dichlorophenyl)thio)-5-(3,5-dimethylpiperazin-1-yl)-[1,2,4]triazolo[4,3-c]pyrimidine]: 1000 to 10000 nM; `N[C@@H]1CCCC12CCN(c1ncc(Sc3ccnc(Cl)n3)c3nccn13)CC2` [(R)-8-(8-((2-chloropyrimidin-4-yl)thio)imidazo[1,2-c]pyrimidin-5-yl)-8-azaspiro[4.5]decan-1-amine]: < 100 nM.
For `CC1(N)COCC12CCN(c1ncc(Sc3cccc(Cl)c3Cl)c3nncn13)CC2` (stereo not drawn) [8-(8-((2,3-dichlorophenyl)thio)-[1,2,4]triazolo[4,3-c]pyrimidin-5-yl)-4-methyl-2-oxa-8-azaspiro[4.5]decan-4-amine], the IC50 at SHP2^E76A protein was 1000 to 10000 nM.
Take `C[C@@H]1OCC2(CCN(c3ncc(Sc4cc(N)ncc4Cl)c4nccn34)CC2)[C@@H]1N`: the IC50 in the experiment on MOLM-13 cells is 100 to 1000 nM.
Consider `COC(=O)c1ccccc1Sc1cnc(N2CCC3(CCC[C@H]3N)CC2)n2cnnc12` [Methyl (R)-2-((5-(1-amino-8-azaspiro[4.5]decan-8-yl)-[1,2,4]triazolo[4,3-c]pyrimidin-8-yl)thio)benzoate], for which the IC50 at SHP2^E76A protein lay in the range of 1000 to 10000 nM.
On the same count and under the same terms, the value for `N[C@@H]1CCCC12CCN(c1ncc(Sc3ccccc3)c3ncnn13)CC2` [(R)-8-(8-(phenylthio)-[1,2,4]triazolo[1,5-c]pyrimidin-5-yl)-8-azaspiro[4.5]decan-1-amine] was 1000 to 10000 nM.
Turning to `Cc1ncccc1Sc1cnc(N2CCC3(CCC[C@H]3N)CC2)n2cnnc12`, the IC50 with MOLM-13 cells lay in the range of 1000 to 10000 nM.
Take `N[C@@H]1CCCC12CCN(c1ncc(Sc3cccnc3Cl)c3nccn13)CC2` [(R)-8-(8-((2-chloropyridin-3-yl)thio)imidazo[1,2-c]pyrimidin-5-yl)-8-azaspiro[4.5]decan-1-amine]: the IC50 on SHP2^E76A protein is < 100 nM.
`Cn1ccnc1Sc1cnc(N2CCC3(CCC[C@H]3N)CC2)n2cnnc12` [(R)-8-(8-((1-methyl-1H-imidazol-2-yl)thio)-[1,2,4]triazolo[4,3-c]pyrimidin-5-yl)-8-azaspiro[4.5]decan-1-amine]: the IC50 on SHP2^E76A protein lay within 1000 to 10000 nM.
As to `Clc1cccc(Sc2cnc(N3CCC4(CCCN4)CC3)n3cnnc23)c1Cl` [8-(8-((2,3-dichlorophenyl)thio)-[1,2,4]triazolo[4,3-c]pyrimidin-5-yl)-1,8-diazaspiro[4.5]decane], the IC50 at SHP2^E76A protein was 1000 to 10000 nM.
Turning to `CN[C@@H]1CCCC12CCN(c1ncc(Sc3cccc(Cl)c3Cl)c3nncn13)CC2` [(R)-8-(8-((2,3-dichlorophenyl)thio)-[1,2,4]triazolo[4,3-c]pyrimidin-5-yl)-N-methyl-8-azaspiro[4.5]decan-1-amine], the IC50 on SHP2^E76A protein was 1000 to 10000 nM.
Take `CC1(N)CCN(c2ncc(-c3cccc(Cl)c3Cl)c3nncn23)CC1` [1-(8-(2,3-dichlorophenyl)-[1,2,4]triazolo[4,3-c]pyrimidin-5-yl)-4-methylpiperidin-4-amine]: on SHP2^E76A protein, the IC50 is 1000 to 10000 nM.
Still for that read-out and setting: the value for `N[C@H]1CCC12CCN(c1ncc(Sc3cccc(Cl)c3Cl)c3nncn13)CC2` [(S)-7-(8-((2,3-dichlorophenyl)thio)-[1,2,4]triazolo[4,3-c]pyrimidin-5-yl)-7-azaspiro[3.5]nonan-1-amine] was 1000 to 10000 nM; that for `Cc1ncccc1Sc1cnc(N2CCC3(CCC[C@H]3N)CC2)n2cnnc12` [(R)-8-(8-((2-methylpyridin-3-yl)thio)-[1,2,4]triazolo[4,3-c]pyrimidin-5-yl)-8-azaspiro[4.5]decan-1-amine] was 100 to 1000 nM.
In the case of `N[C@@H]1CCCC12CCN(c1ncc(Sc3ccncc3C(F)(F)F)c3ncnn13)CC2` [(R)-8-(8-((3-(trifluoromethyl)pyridin-4-yl)thio)-[1,2,4]triazolo[1,5-c]pyrimidin-5-yl)-8-azaspiro[4.5]decan-1-amine], the IC50 on SHP2^E76A protein lay in the range of 1000 to 10000 nM.
Take `N[C@@H]1CCCC12CCN(c1ncc(Sc3ccccc3)c3nncn13)CC2` [(R)-8-(8-(phenylthio)-[1,2,4]triazolo[4,3-c]pyrimidin-5-yl)-8-azaspiro[4.5]decan-1-amine]: the IC50 at SHP2^E76A protein lay in the range of 1000 to 10000 nM.
As for `C[C@H]1OCC2(CCN(c3ncc(Sc4cccc(Cl)c4Cl)c4nncn34)CC2)[C@H]1N`, the IC50 on SHP2^E76A protein lay within 1000 to 10000 nM.
Still for that read-out and setting: next, `N[C@@H]1CCCN(c2ncc(Sc3cccc(Cl)c3Cl)c3nccn23)CC1` [(R)-1-(8-((2,3-dichlorophenyl)thio)imidazo[1,2-c]pyrimidin-5-yl)azepan-4-amine]: 100 to 1000 nM.
